Test results published in US20040063662A1, “Selenophene anti-tumor agents” (priority 1996, published 2004).

What was measured:
[1] = system: CCRF-CEM; assay: NCI human tumor cell panel: CCRF-CEM (Leukemia); format: cell-based
[2] = system: HL-60(TB); assay: NCI human tumor cell panel: HL-60(TB) (Leukemia); format: cell-based
[3] = system: K-562; assay: NCI human tumor cell panel: K-562 (Leukemia); format: cell-based
[4] = system: SR; assay: NCI human tumor cell panel: SR (Leukemia); format: cell-based
[5] = system: HOP-62; assay: NCI human tumor cell panel: HOP-62 (Non-Small Cell Lung Cancer); format: cell-based; details: HOP-62, read-out: Log10 TGI (converted)
[6] = system: NCI-H226; assay: NCI human tumor cell panel: NCI-H226 (Non-Small Cell Lung Cancer); format: cell-based
[7] = system: COLO 205; assay: NCI human tumor cell panel: COLO 205 (Colon Cancer); format: cell-based; details: COLO 205, read-out: Log10 GI50 (converted)
[8] = system: HCC-2998; assay: NCI human tumor cell panel: HCC-2998 (Colon Cancer); format: cell-based
[9] = system: HCT-15; assay: NCI human tumor cell panel: HCT-15 (Colon Cancer); format: cell-based
[10] = system: KM12; assay: NCI human tumor cell panel: KM12 (Colon Cancer); format: cell-based
[11] = system: SF-268; assay: NCI human tumor cell panel: SF-268 (CNS Cancer); format: cell-based
[12] = system: SNB-19; assay: NCI human tumor cell panel: SNB-19 (CNS Cancer); format: cell-based
[13] = system: MALME-3M; assay: NCI human tumor cell panel: MALME-3M (Melanoma); format: cell-based; details: Malme-3M, read-out: Log10 GI50 (converted)
[14] = system: UACC-257; assay: NCI human tumor cell panel: UACC-257 (Melanoma); format: cell-based
[15] = system: UACC-62; assay: NCI human tumor cell panel: UACC-62 (Melanoma); format: cell-based
[16] = system: OVCAR-4; assay: NCI human tumor cell panel: OVCAR-4 (Ovarian Cancer); format: cell-based; details: OVCAR-4, read-out: Log10 TGI (converted)
[17] = system: OVCAR-5; assay: NCI human tumor cell panel: OVCAR-5 (Ovarian Cancer); format: cell-based
[18] = system: SK-OV-3; assay: NCI human tumor cell panel: SK-OV-3 (Ovarian Cancer); format: cell-based
[19] = system: CAKI-1; assay: NCI human tumor cell panel: CAKI-1 (Renal Cancer); format: cell-based
[20] = system: RXF-393; assay: NCI human tumor cell panel: RXF-393 (Renal Cancer); format: cell-based
[21] = system: SN12C; assay: NCI human tumor cell panel: SN12C (Renal Cancer); format: cell-based
[22] = system: PC-3; assay: NCI human tumor cell panel: PC-3 (Prostate Cancer); format: cell-based
[23] = system: DU-145; assay: NCI human tumor cell panel: DU-145 (Prostate Cancer); format: cell-based
[24] = system: MCF7; assay: NCI human tumor cell panel: MCF7 (Breast Cancer); format: cell-based
[25] = system: MDA-MB-231/ATCC; assay: NCI human tumor cell panel: MDA-MB-231/ATCC (Breast Cancer); format: cell-based; details: Homo sapiens, MDA-MB-231, MDA-MB-231/ATCC
[26] = system: HS 578T; assay: NCI human tumor cell panel: HS 578T (Breast Cancer); format: cell-based
[27] = system: T-47D; assay: NCI human tumor cell panel: T-47D (Breast Cancer); format: cell-based; details: T47D
[28] = system: HOP-92; assay: NCI human tumor cell panel: HOP-92 (Non-Small Cell Lung Cancer)
[29] = system: panel of sixty different human tumor cell lines; assay: NCI human tumor cell panel: whole panel (mean graph summary)
[30] = read-out: Log10 GI50 (converted)
[31] = read-out: Log10 TGI (converted)

For `OCc1ccc(-c2ccc(-c3ccc[se]3)s2)[se]1` [compound 676631], the GI50 [1, 30] was > 100 µM, the IC (TGI) [1, 31] was > 100 µM and the GI50 [2, 30] was > 100 µM. The IC (TGI) ([2]; read-out: Log10 TGI) was > 100 µM, the GI50 ([3]; K562, K-562, read-out: Log10 GI50 (converted)) was 0.102 µM and the IC (TGI) ([3]; K562, K-562, read-out: Log10 TGI (converted)) was > 100 µM. The GI50 [4, 30] was > 100 µM, the IC (TGI) [4, 31] was > 100 µM and the IC (TGI) [5] was > 100 µM. It also gave a GI50 ([6]; NCI-H226, read-out: Log10 GI50 (converted)) of 0.0501 µM, an IC (TGI) ([6]; NCI-H226, read-out: Log10 TGI (converted)) of 0.182 µM and a GI50 [7] of 0.288 µM. The GI50 ([8]; HCC-2998, read-out: Log10 GI50 (converted)) was 42.7 µM, the IC (TGI) ([8]; HCC-2998, read-out: Log10 TGI (converted)) was > 100 µM and the GI50 ([9]; HCT-15, read-out: Log10 GI50 (converted)) was 27.5 µM. For the same compound, the IC (TGI) ([9]; HCT-15, read-out: Log10 TGI (converted)) was > 100 µM, the GI50 ([10]; KM12, read-out: Log10 GI50 (converted)) was 26.9 µM and the IC (TGI) ([10]; KM12, read-out: Log10 TGI (converted)) was > 100 µM. The GI50 ([11]; SF-268, read-out: Log10 GI50 (converted)) was 23.4 µM, the IC (TGI) ([11]; SF-268, read-out: Log10 TGI (converted)) was 64.6 µM and the GI50 ([12]; SNB-19, read-out: Log10 GI50 (converted)) was 17.4 µM. For the same compound, the IC (TGI) ([12]; SNB-19, read-out: Log10 TGI (converted)) was > 100 µM, the GI50 [13] was > 100 µM and the GI50 ([14]; UACC-257, read-out: Log10 GI50 (converted)) was 0.0316 µM. For the same compound, the IC (TGI) ([14]; UACC-257, read-out: Log10 TGI (converted)) was > 100 µM, the GI50 ([15]; UACC-62, read-out: Log10 GI50 (converted)) was 0.0263 µM and the IC (TGI) ([15]; UACC-62, read-out: Log10 TGI (converted)) was 0.115 µM. For the same compound, the IC (TGI) [16] was > 100 µM, the GI50 ([17]; OVCAR-5, read-out: Log10 GI50 (converted)) was 0.0316 µM and the IC (TGI) ([17]; OVCAR-5, read-out: Log10 TGI (converted)) was 0.209 µM. For the same compound, the GI50 ([18]; SK-OV-3, read-out: Log10 GI50 (converted)) was 45.7 µM, the IC (TGI) ([18]; SK-OV-3, read-out: Log10 TGI (converted)) was > 100 µM and the GI50 ([19]; CAKI-1, read-out: Log10 GI50 (converted)) was 0.0309 µM. The IC (TGI) ([19]; CAKI-1, read-out: Log10 TGI (converted)) was 0.191 µM, the GI50 ([20]; RXF-393, read-out: Log10 GI50 (converted)) was 72.4 µM and the IC (TGI) ([20]; RXF-393, read-out: Log10 TGI (converted)) was > 100 µM. For the same compound, the GI50 [21, 30] was > 100 µM, the IC (TGI) [21, 31] was > 100 µM and the GI50 ([22]; PC-3, read-out: Log10 GI50 (converted)) was 52.5 µM. For the same compound, the IC (TGI) ([22]; PC-3, read-out: Log10 TGI (converted)) was > 100 µM, the GI50 ([23]; DU-145, read-out: Log10 GI50 (converted)) was 20 µM and the IC (TGI) ([23]; DU-145, read-out: Log10 TGI (converted)) was 77.6 µM. It also gave a GI50 ([24]; MCF7, read-out: Log10 GI50 (converted)) of 0.0933 µM, an IC (TGI) ([24]; MCF7, read-out: Log10 TGI (converted)) of 21.9 µM and a GI50 [25, 30] of 19.1 µM. For the same compound, the IC (TGI) [25, 31] was 87.1 µM, the GI50 [26, 30] was > 100 µM and the IC (TGI) [26, 31] was > 100 µM. The GI50 [27, 30] was 0.676 µM, the IC (TGI) [27, 31] was > 100 µM and the GI50 ([28]; HOP-92, read-out: Log10 GI50 (converted)) was > 100 µM. For the same compound, the IC (TGI) ([28]; HOP-92, read-out: Log10 TGI) was > 100 µM, the GI50 ([29]; Homo sapiens, read-out: Log10 GI50, MG_MID, mean over the panel (converted)) was 6.61 µM and the “Log10 LC50, MG_MID” value ([29]; mean over the panel) was −4.15. The “Log10 TGI, MG_MID” value ([29]; mean over the panel) was −4.47, the “Log10 TGI, Delta” value ([29]; whole panel) was 2.61 and the “Log10 TGI, Range” value ([29]; whole panel) was 3.08.
